Measurements taken from PMC4256409, “Role of Phenylalanine and Valine^10 Residues in the Antimicrobial Activity and Cytotoxicity of Piscidin-1” (PLoS ONE, 2014).
Where no end group is shown, it is not given here.

Tests used:
E. coli KCTC2593 = assay type: cell-based, Escherichia coli; settings: KCTC2593, 16 h
MRSA CCARM3089 = assay type: cell-based, Methicillin-resistant S. aureus; settings: CCARM3089, 16 h
MDRST CCARM 8009 = assay type: cell-based, multidrug-resistant S. typhimurium; settings: broth microdilution, 37°C, 16 h, three independent experiments in triplicate, SD 14.0%
B. subtilis KCTC3068 = assay type: cell-based, Bacillus subtilis; settings: KCTC3068, 16 h
P. aeruginosa KCTC2513 = assay type: cell-based, Pseudomonas aeruginosa; settings: KCTC2513, 16 h
MDREC CCARM 1229 = assay type: cell-based, multidrug-resistant E. coli; settings: broth microdilution, 37°C, 16 h, three independent experiments in triplicate, SD 14.0%
MDRAB CCARM 12005 = assay type: cell-based, multidrug-resistant Acinetobacter baumanii; settings: broth microdilution, 37°C, 16 h, three independent experiments in triplicate, SD 14.0%
MRSA CCARM 3090 = assay type: cell-based, Methicillin-resistant S. aureus; settings: CCARM 3090, 16 h
[1] = tested on: Standard bacterial strains; assay type: cell-based; settings: average over the 14 standard bacterial strains of Table 2
S. aureus KCTC1621 = assay type: cell-based, Staphylococcus aureus; settings: KCTC1621, 16 h
MRSA CCARM 3114 = assay type: cell-based, Methicillin-resistant S. aureus; settings: CCARM 3114, 16 h
S. aureus KCTC3881 = assay type: cell-based, Staphylococcus aureus; settings: KCTC3881, 16 h
MDRPA CCARM 2003 = assay type: cell-based, multidrug-resistant P. aeruginosa; settings: broth microdilution, 37°C, 16 h, three independent experiments in triplicate, SD 14.0%
B. subtilis KCTC1022 = assay type: cell-based, Bacillus subtilis; settings: KCTC1022, 16 h
P. aeruginosa KCTC2004 = assay type: cell-based, Pseudomonas aeruginosa; settings: KCTC2004, 16 h
E. coli KCTC1682 = assay type: cell-based, Escherichia coli; settings: KCTC1682, 16 h
MDRPA CCARM 2095 = assay type: cell-based, multidrug-resistant P. aeruginosa; settings: broth microdilution, 37°C, 16 h, three independent experiments in triplicate, SD 14.0%
MDRST CCARM 8007 = assay type: cell-based, multidrug-resistant S. typhimurium; settings: broth microdilution, 37°C, 16 h, three independent experiments in triplicate, SD 14.0%
MDRAB CCARM 12035 = assay type: cell-based, multidrug-resistant Acinetobacter baumanii; settings: broth microdilution, 37°C, 16 h, three independent experiments in triplicate, SD 14.0%
S. typhimurium KCTC1926 = assay type: cell-based, Salmonella typhimurium; settings: KCTC1926, 16 h
[2] = tested on: Drug-resistant bacterial strains; settings: average over the 18 drug-resistant bacterial strains of Table 3
Text: Escherichia coli KCTC 1682, E. coli KCTC 2593, E. coli KCTC 2571, Salmonella typhimurium KCTC 1926, Pseudomonas aeruginosa KCTC 1637, P. aeruginosa KCTC 2004, P. aeruginosa KCTC 2513, Bacillus subtilis KCTC 3068, B. subtilis KCTC 1021, B. subtilis KCTC 1022, Staphylococcus epidermidis KCTC 1917, Staphylococcus aureus KCTC 1621, S. aureus KCTC 1916, and S. aureus KCTC 3881 were purchased from the Korean Collection for Type Cultures, Korea Research Institute of Bioscience & Biotechnology (Taejon, Korea). Methicillin-resistant S. aureus (MRSA) (CCARM 3089, CCARM 3090, CCARM 3108, CCARM 3114, and CCARM 3126), multidrug-resistant E. coli (MDREC) (CCARM 1229 and CCARM 1238), multidrug-resistant S. typhimurium (MDRST) (CCARM 8003, CCARM 8007, and CCARM 8009), multidrug-resistant Acinetobacter baumanii (MDRAB) (CCARM 12005, CCARM 12035, CCARM 12036, CCARM 12037), and multidrug-resistant P. aeruginosa (MDRPA) (CCARM 2002, CCARM 2003, CCARM 2095, and CCARM 2163) were obtained from the Culture Collection of Antibiotic-Resistant Microbes (CCARM) at Seoul Women’s University in Korea. The antimicrobial activities of the peptides against selected organisms, including three Gram-positive, three Gram-negative, and five antibiotic-resistant bacteria, were determined using a broth microdilution assay. Briefly, single colonies of bacteria and fungi were inoculated into Luria-Bertani (LB) medium and cultured overnight at 37°C. An aliquot of the culture was transferred to 10 mL of fresh LB and incubated for an additional 3–5 h at 37°C until it reached the mid-logarithmic phase. Two-fold serial dilutions of the peptides in 1% peptone were prepared. The serial dilutions (100 µL) were added to 100 µL of cells (2×10^6 colony-forming units (CFU)/mL) in 96-well microtiter plates and incubated at 37°C for 16 h. […] MIC values were calculated as the average of triplicate measurements from three independent assays.

MRSA CCARM 3126 = assay type: cell-based, Methicillin-resistant S. aureus; settings: CCARM 3126, 16 h
MDRST CCARM 8003 = assay type: cell-based, multidrug-resistant S. typhimurium; settings: broth microdilution, 37°C, 16 h, three independent experiments in triplicate, SD 14.0%
P. aeruginosa KCTC1637 = assay type: cell-based, Pseudomonas aeruginosa; settings: KCTC1637, 16 h
E.coli KCTC2571 = assay type: cell-based, Escherichia coli; settings: KCTC2571, 16 h
S. aureus KCTC1916 = assay type: cell-based, Staphylococcus aureus; settings: KCTC1916, 16 h
MDRPA CCARM 2163 = assay type: cell-based, multidrug-resistant P. aeruginosa; settings: broth microdilution, 37°C, 16 h, three independent experiments in triplicate, SD 14.0%
B. subtilis KCTC1021 = assay type: cell-based, Bacillus subtilis; settings: KCTC1021, 16 h
S. epidermidis KCTC1917 = assay type: cell-based, Staphylococcus epidermidis; settings: KCTC1917, 16 h
MDRAB CCARM 12037 = assay type: cell-based, multidrug-resistant Acinetobacter baumanii; settings: broth microdilution, 37°C, 16 h, three independent experiments in triplicate, SD 14.0%
MRSA CCARM 3108 = assay type: cell-based, Methicillin-resistant S. aureus; settings: CCARM 3108, 16 h
MDRAB CCARM 12036 = assay type: cell-based, multidrug-resistant Acinetobacter baumanii; settings: broth microdilution, 37°C, 16 h, three independent experiments in triplicate, SD 14.0%
MDRPA CCARM 2002 = assay type: cell-based, multidrug-resistant P. aeruginosa; settings: broth microdilution, 37°C, 16 h, three independent experiments in triplicate, SD 14.0%
MDREC CCARM 1238 = assay type: cell-based, multidrug-resistant E. coli; settings: broth microdilution, 37°C, 16 h, three independent experiments in triplicate, SD 14.0%

Sequence | MIC (E. coli KCTC2593) | MIC (MRSA CCARM3089) | MIC (MDRST CCARM 8009) | MIC (B. subtilis KCTC3068) | MIC (P. aeruginosa KCTC2513) | MIC (MDREC CCARM 1229) | MIC (MDRAB CCARM 12005) | MIC (MRSA CCARM 3090) | Average MIC [1] | MIC (S. aureus KCTC1621) | MIC (MRSA CCARM 3114) | MIC (S. aureus KCTC3881) | MIC (MDRPA CCARM 2003) | MIC (B. subtilis KCTC1022) | MIC (P. aeruginosa KCTC2004) | MIC (E. coli KCTC1682) | MIC (MDRPA CCARM 2095) | MIC (MDRST CCARM 8007) | MIC (MDRAB CCARM 12035) | MIC (S. typhimurium KCTC1926) | also measured
AFHHIFRGIVHVGKTIHRLVTG [Pis-F1A] | 2.0 µM | 8.0 µM | 8.0 µM | 4.0 µM | 8.0 µM | 8.0 µM | 2.0 µM | 8.0 µM | 3.2 µM | 1.0 µM | 8.0 µM | 2.0 µM | 2.0 µM | 1.0 µM | 4.0 µM | 2.0 µM | 2.0 µM | 8.0 µM | 2.0 µM | 8.0 µM | Average MIC [2]: 5.3 µM; MIC (MRSA CCARM 3126): 8.0 µM; MIC (MDRST CCARM 8003): 8.0 µM; MIC (P. aeruginosa KCTC1637): 4.0 µM; MIC (E.coli KCTC2571): 2.0 µM; MIC (S. aureus KCTC1916): 1.0 µM; MIC (MDRPA CCARM 2163): 2.0 µM; MIC (B. subtilis KCTC1021): 4.0 µM; MIC (S. epidermidis KCTC1917): 2.0 µM; MIC (MDRAB CCARM 12037): 2.0 µM; MIC (MRSA CCARM 3108): 8.0 µM; MIC (MDRAB CCARM 12036): 2.0 µM; MIC (MDRPA CCARM 2002): 2.0 µM; MIC (MDREC CCARM 1238): 8.0 µM
FAHHIFRGIVHVGKTIHRLVTG [Pis-F2A] | 2.0 µM | 16 µM | 16 µM | 4.0 µM | 8.0 µM | 16 µM | 4.0 µM | 16 µM | 4.6 µM | 4.0 µM | 16 µM | 2.0 µM | 4.0 µM | 1.0 µM | 8.0 µM | 2.0 µM | 4.0 µM | 16 µM | 4.0 µM | 16 µM | Average MIC [2]: 12 µM; MIC (MRSA CCARM 3126): 16 µM; MIC (MDRST CCARM 8003): 32 µM; MIC (P. aeruginosa KCTC1637): 4.0 µM; MIC (E.coli KCTC2571): 2.0 µM; MIC (S. aureus KCTC1916): 1.0 µM; MIC (MDRPA CCARM 2163): 4.0 µM; MIC (B. subtilis KCTC1021): 8.0 µM; MIC (S. epidermidis KCTC1917): 2.0 µM; MIC (MDRAB CCARM 12037): 4.0 µM; MIC (MRSA CCARM 3108): 16 µM; MIC (MDRAB CCARM 12036): 4.0 µM; MIC (MDRPA CCARM 2002): 4.0 µM; MIC (MDREC CCARM 1238): 16 µM
FFHHIARGIVHVGKTIHRLVTG [Pis-F6A] | 2.0 µM | 32 µM | 16 µM | 4.0 µM | 16 µM | 32 µM | 4.0 µM | 32 µM | 6.3 µM | 4.0 µM | 16 µM | 4.0 µM | 4.0 µM | 2.0 µM | 8.0 µM | 2.0 µM | 4.0 µM | 16 µM | 4.0 µM | 16 µM | Average MIC [2]: 15 µM; MIC (MRSA CCARM 3126): 16 µM; MIC (MDRST CCARM 8003): 32 µM; MIC (P. aeruginosa KCTC1637): 4.0 µM; MIC (E.coli KCTC2571): 4.0 µM; MIC (S. aureus KCTC1916): 2.0 µM; MIC (MDRPA CCARM 2163): 4.0 µM; MIC (B. subtilis KCTC1021): 16 µM; MIC (S. epidermidis KCTC1917): 4.0 µM; MIC (MDRAB CCARM 12037): 4.0 µM; MIC (MRSA CCARM 3108): 16 µM; MIC (MDRAB CCARM 12036): 4.0 µM; MIC (MDRPA CCARM 2002): 4.0 µM; MIC (MDREC CCARM 1238): 32 µM
